The values that follow come from patent publication US20250002785A1, “MULTIPURPOSE IMIDAZOLINE-BASED PROCESS CHEMICALS” (Baker Hughes Oilfield Operations LLC, priority 2023, published 2025).

The nature of the assay: hydrogen sulfide scavenging in sour Isopar M solvent. The conditions noted are these: sour Isopar M solvent with 4000 ppm H2S, scavenger dose per sample in the 5th table. On the procedure:
Further testing was performed to compare the hydrogen sulfide scavenging properties of an exemplary embodiment of the multipurpose process chemical compared to conventional scavengers.
A sour Isopar™ M solvent was obtained with 4000 ppm hydrogen sulfide (H2S). Samples were obtained by mixing the following with the sour Isopar™ M solvent:
The control and Samples V-A through V-F were stirred for twenty-four (24) hours at ambient temperature (˜71° F.). […] The table below summarizes the hydrogen sulfide scavenging observed for each sample: […]

Regarding `CC1COC(=O)O1` (centres unmarked) [Sample V-C, propylene carbonate], the “% H2S reduction” value (24 hours, ambient temperature) turned out to be 0%. In addition, the “H2S at 24 hours (ppm)” value (stirred 24 hours at ambient temperature (~71 F), control 3,500 ppm) was 3,500 ppm.
